The target of the test is T1, human FSH receptor (Homo sapiens, UniProt P23945).
T1 construct: expressed in transfected cells; host or cells: CHO cells (hFSHR clone 16)
T1 sequence (P23945 18-695): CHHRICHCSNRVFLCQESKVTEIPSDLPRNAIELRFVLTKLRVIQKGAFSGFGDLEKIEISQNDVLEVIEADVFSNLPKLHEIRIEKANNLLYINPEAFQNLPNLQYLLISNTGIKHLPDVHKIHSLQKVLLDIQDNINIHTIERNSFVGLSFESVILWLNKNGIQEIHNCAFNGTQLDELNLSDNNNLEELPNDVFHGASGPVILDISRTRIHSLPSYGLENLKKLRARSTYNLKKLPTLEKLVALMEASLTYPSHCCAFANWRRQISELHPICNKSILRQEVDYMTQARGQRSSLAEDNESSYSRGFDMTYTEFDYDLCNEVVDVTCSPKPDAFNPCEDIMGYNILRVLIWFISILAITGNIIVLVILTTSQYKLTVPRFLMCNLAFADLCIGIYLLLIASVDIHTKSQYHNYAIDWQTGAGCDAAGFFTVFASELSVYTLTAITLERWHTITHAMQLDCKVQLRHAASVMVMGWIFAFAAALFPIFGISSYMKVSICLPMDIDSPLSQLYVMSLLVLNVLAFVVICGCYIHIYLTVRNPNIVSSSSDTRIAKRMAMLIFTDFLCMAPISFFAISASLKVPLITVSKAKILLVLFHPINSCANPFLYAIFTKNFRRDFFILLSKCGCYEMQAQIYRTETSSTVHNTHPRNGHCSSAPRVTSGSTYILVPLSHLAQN
The experiment in a line: HTRF assay for measuring cAMP in cells (FSH-antagonistic effect). The following applies: hFSHR clone 16 cells (CHO cells stably transfected with the human FSH receptor), in the presence of 1e-9 mol/l hFSH, 37° C. for 2 h. The test is classed as cell-based. The procedure: HTRF Assay for Measuring cAMP in Cells
The method is based on a competitive immunoassay between native cAMP, which has been produced by the cells, and cAMP which is labelled with cAMPD2 conjugate. The tracer binding was visualized by a monoclonal antibody, anti-cAMP labelled with cryptate [HTRF=homogeneous time-resolved fluorescence].
The specific signal is inversely proportional to the cAMP concentration of the samples employed.
The 665 nm/620 nm fluorescence ratio was evaluated.
Materials used: 96-well plates for the tissue culture, 96-well plates with black edge and black base (e.g. Fluotrac 600 from Greiner), 96-well plates for the substance dilutions of polypropylene and cAMP Femtomolar (4000 wells Kit, CIS Bio International # 62AM5PEJ).
Reagent used: BSA (bovine serum albumin) Fraction V protease-free, IBMX (3-isobutyl-1-methylxanthine), hFSH (human follicle stimulating hormone), Triton X-100 analytical grade, potassium fluoride analytical grade, G 418 (Geneticin) and Accutase.
Buffer 1 (washing and testing buffer) contained PBS, 1 mM CaCl2, 1 mM MgCl2, 0.2% glucose; 0.1% BSA, 1 mM IBMX.
Buffer 2 (2× lysis buffer) contained 1% Triton X-100 in PBS (without CaCl2 and MgCl2).
Buffer 3 (assay buffer) contained 50 mM potassium phosphate buffer (pH 7.0); 800 mM potassium fluoride; 0.2% BSA (always added fresh).
On day 1, the cells were seeded in 96-well plates (3×10^4 cells per well hFSHR clone 16 cells (CHO cells stably transfected with the human FSH receptor in 150 μl of medium). The next day, test substance dilutions were made up. For this purpose, all the substances were diluted in ice-cold buffer 1 (with or without hFSH), and the substance dilutions were placed on ice until applied to the cells. The cell supernatant was then aspirated off, and the cells were washed 2× with 200 μl of buffer 1. The cells were treated with 60 μl of the appropriate substance concentrations at 37° C. for 2 h. The cells were then lysed with 60 μl of buffer 2 (put onto the supernatant) (on a plate shaker at RT for 30 min). The test conjugates (cAMP-D2 and anti-cAMP cryptate, CIS Bio) were diluted in buffer 3 in accordance with the manufacturers' information. The actual mixture for measurement was pipetted into a black 96-well plate (in each case 15 μl of the cell lysate diluted with 35 μl of buffer 1; firstly 25 μl of cAMP-D2 conjugate were pipetted and, after 10 min, 25 μl of the anti-cAMP cryptate were added). This is followed by incubation at RT for 90 minutes. The measurement was carried out in a PheraStar (BMG).
Dose-effect curve (hFSH) for the human receptor: 1e-8, 3e-9, 1e-9, 3e-10, 1e-10, 3e-11, 1e-11, 3e-12 mol/l.
The test substances were employed in suitable dilutions in the absence (test for agonism) and in the presence of 1e-9 mol/l hFSH.
The values of the well ratio were averaged and then entered directly in SigmaPlot versus the concentrations. The maximum and minimum values were determined for each plate, and half the difference is to be regarded as IC50.
For orientation: In TR-FRET formats the signal depends on donor and acceptor labels being close together.
What is called IC50 is the midpoint of a concentration-inhibition curve. On to `CC(C)Oc1ccc(C#Cc2ccc3c(c2)CCNC3=O)cc1C(=O)N[C@@H](CO)Cc1c[nH]c2ccccc12` [Example 154, N-[(R)-1-Hydroxymethyl-2-(1H-indol-3-yl)-ethyl]-2-isopropoxy-5-(1-oxo-1,2,3,4-tetrahydro-isoquinolin-6-ylethynyl)-benzamide], for which the IC50 worked out at 0.006 µM. Take `CC(C)Oc1ccc(C#Cc2cccc(C(=O)NCCS(N)(=O)=O)c2)cc1C(=O)N[C@@H](CO)Cc1c[nH]c2ccccc12` [Example 167, N-[(R)-1-Hydroxymethyl-2-(1H-indol-3-yl)-ethyl]-2-isopropoxy-5-[3-(2-sulfamoyl-ethylcarbamoyl)-phenylethynyl]-benzamide]: the IC50 turned out to be 0.023 µM. Turning to `CC(C)Oc1ccc(C#Cc2ccc3c(c2)C(=O)NC3=O)cc1C(=O)N[C@@H](CO)Cc1c[nH]c2ccccc12` [Example 156, 5-(1,3-Dioxo-2,3-dihydro-1H-isoindol-5-ylethynyl)-N-[(R)-1-hydroxymethyl-2-(1H-indol-3-yl)-ethyl]-2-isopropoxy-benzamide], the IC50 was found to be 0.015 µM. On to `CC(C)Oc1ccc(C#Cc2ccc3oc(C(=O)O)cc3c2)cc1C(=O)N[C@@H](CO)Cc1c[nH]c2ccccc12` [Example 127, 5-{3-[(R)-1-Hydroxymethyl-2-(1H-indol-3-yl)-ethylcarbamoyl]-4-isopropoxy-phenylethynyl}-benzofuran-2-carboxylic acid], for which the IC50 is 0.09 µM. In the case of `CC(C)Oc1ccc(C#Cc2ccc(N3CCNC3=O)cc2)cc1C(=O)N[C@@H](CO)Cc1c[nH]c2ccccc12` [Example 146, N-[(R)-1-Hydroxymethyl-2-(1H-indol-3-yl)-ethyl]-2-isopropoxy-5-[4-(2-oxo-imidazolidin-1-yl)-phenylethynyl]-benzamide] it was 0.07 µM.

`CC(C)Oc1ccc(C#Cc2ccc3[nH]ncc3c2)cc1C(=O)N[C@@H](CO)Cc1c[nH]c2ccccc12` [Example 113, N-[(R)-2-Hydroxy-1-(1H-indol-3-ylmethyl)-ethyl]-5-(1H-indazol-5-ylethynyl)-2-isopropoxy-benzamide]: the IC50 was 0.025 µM. On to `CNC(=O)c1cccc(C#Cc2ccc(Cl)c(C(=O)NC(CO)Cc3c[nH]c4cc(F)ccc34)c2)c1` (centres unmarked) [Example 83, 2-Chloro-N-[2-(6-fluoro-1H-indol-3-yl)-1-hydroxymethyl-ethyl]-5-(3-methylcarbamoyl-phenylethynyl)-benzamide], for which the 50% inhibitory concentration (IC50) was determined as 0.7 µM. In the case of `CC(C)Oc1ccc(C#Cc2ccccc2)cc1C(=O)NC(CO)Cc1c[nH]c2cc(F)ccc12` (centres unmarked) [Example 75, N-[2-(6-Fluoro-1H-indol-3-yl)-1-hydroxymethyl-ethyl]-2-isopropoxy-5-phenylethynyl-benzamide] it was 0.1 µM. As for `COC(=O)CCCCCNC(=O)c1ccc(C#Cc2ccc(OC(C)C)c(C(=O)N[C@@H](CO)Cc3c[nH]c4ccccc34)c2)cc1` [Example 171, 6-(4-{3-[(R)-1-Hydroxymethyl-2-(1H-indol-3-yl)-ethylcarbamoyl]-4-isopropoxy-phenylethynyl}-benzoylamino)-hexanoic acid methyl ester], the half-inhibitory concentration (IC50) is 0.025 µM. As to `O=C(N[C@@H](CO)Cc1c[nH]c2ccccc12)c1cccc(C#Cc2ccccn2)c1` [Example 160, N-[(R)-1-Hydroxymethyl-2-(1H-indol-3-yl)-ethyl]-3-pyridin-2-ylethynyl-benzamide], the half-maximal inhibitory concentration (IC50) came out at 6 µM. Regarding `CC(C)Oc1ccc(C#Cc2cncc(C(N)=O)c2)cc1C(=O)N[C@@H](CO)Cc1c[nH]c2ccccc12` [Example 97, 5-{3-[(R)-1-Hydroxymethyl-2-(1H-indol-3-yl)-ethylcarbamoyl]-4-isopropoxy-phenylethynyl}-nicotinamide], the half-maximal inhibitory concentration (IC50) turned out to be 0.015 µM. As to `CC(C)Oc1ccc(C#Cc2ccsc2)cc1C(=O)N[C@@H](CO)Cc1c[nH]c2ccccc12` [Example 100, N-[(R)-2-Hydroxy-1-(1H-indol-3-ylmethyl)-ethyl]-2-isopropoxy-5-thiophen-3-ylethynyl-benzamide], the IC50 turned out to be 0.07 µM. As for `CC(C)Oc1ccc(C#Cc2ccc(-c3cc[nH]n3)cc2)cc1C(=O)N[C@@H](CO)Cc1c[nH]c2ccccc12` [Example 142, N-[(R)-2-Hydroxy-1-(1H-indol-3-ylmethyl)-ethyl]-2-isopropoxy-5-[4-(1H-pyrazol-3-yl)-phenylethynyl]-benzamide], the IC50 was 0.01 µM. Consider `CC(C)Oc1ccc(C#Cc2cncnc2)cc1C(=O)N[C@@H](CO)Cc1c[nH]c2ccccc12` [Example 46, N-[(R)-1-Hydroxymethyl-2-(1H-indol-3-yl)-ethyl]-2-isopropoxy-5-pyrimidin-5-ylethynyl-benzamide], for which the IC50 worked out at 0.15 µM. For `CC(C)Oc1ccc(C#Cc2cccc(S(N)(=O)=O)c2)cc1C(=O)N[C@@H](CO)Cc1c[nH]c2ccccc12` [Example 123, N-[(R)-2-Hydroxy-1-(1H-indol-3-ylmethyl)-ethyl]-2-isopropoxy-5-(3-sulfamoyl-phenylethynyl)-benzamide], the half-inhibitory concentration (IC50) came out at 0.25 µM.

Regarding `CC(C)Oc1ccc(C#Cc2ccc(C(=O)O)o2)cc1C(=O)N[C@@H](CO)Cc1c[nH]c2ccccc12` [Example 88, 5-{3-[(R)-1-Hydroxymethyl-2-(1H-indol-3-yl)-ethylcarbamoyl]-4-isopropoxy-phenylethynyl}-furan-2-carboxylic acid], the IC50 is 0.06 µM. In the case of `CC(C)Oc1ccc(C#Cc2ccc3c(c2)C(=O)NCC3)cc1C(=O)N[C@@H](CO)Cc1c[nH]c2ccccc12` [Example 68, N-[(R)-1-Hydroxymethyl-2-(1H-indol-3-yl)-ethyl]-2-isopropoxy-5-(1-oxo-1,2,3,4-tetrahydro-isoquinolin-7-ylethynyl)-benzamide] it was 0.03 µM; in that of `CC(C)Oc1ccc(C#Cc2ccccc2CC(=O)O)cc1C(=O)N[C@@H](CO)Cc1c[nH]c2ccccc12` [Example 58, (2-{3-[(R)-1-Hydroxymethyl-2-(1H-indol-3-yl)-ethylcarbamoyl]-4-isopropoxy-phenylethynyl}-phenyl)-acetic acid], 2.5 µM. To `CC(C)Oc1ccc(C#Cc2ccc(C3(O)CCNCC3)cc2)cc1C(=O)N[C@@H](CO)Cc1c[nH]c2ccccc12` [Example 106, N-[(R)-1-Hydroxymethyl-2-(1H-indol-3-yl)-ethyl]-5-[4-(4-hydroxy-piperidin-4-yl)-phenylethynyl]-2-isopropoxy-benzamide] belongs 4 µM. On to `CNC(=O)c1cccc(C#Cc2ccc(Cl)c(C(=O)N[C@@H](CO)Cc3c[nH]c4ccccc34)c2)c1` [Example 79, 2-Chloro-N-[(R)-2-hydroxy-1-(1H-indol-3-ylmethyl)-ethyl]-5-(3-methylcarbamoyl-phenylethynyl)-benzamide], for which the IC50 came to 3.5 µM.

Source of the values: patent US20080221195A1, “1,2-DIARYLACETYLENE DERIVATIVES OF ACYLTRYPTOPHANOLS” (priority 2006, published 2008).
